Test results as given in ChEMBL document CHEMBL1126211, “Arylamides of hydroxylated isoquinolines as protein-tyrosine kinase inhibitors” (Bioorg Med Chem Lett, 1992).

Tests used:
[1] = biological target: Tyrosine-protein kinase Lck (Homo sapiens, UniProt P06239); assay: Inhibition of p56 lck tyrosine kinase
[2] = biological target: Epidermal growth factor receptor (Homo sapiens, UniProt P00533); assay: Inhibition of epidermal growth factor receptor (EGFR)
Epidermal growth factor receptor, sequence (P00533 whole entry): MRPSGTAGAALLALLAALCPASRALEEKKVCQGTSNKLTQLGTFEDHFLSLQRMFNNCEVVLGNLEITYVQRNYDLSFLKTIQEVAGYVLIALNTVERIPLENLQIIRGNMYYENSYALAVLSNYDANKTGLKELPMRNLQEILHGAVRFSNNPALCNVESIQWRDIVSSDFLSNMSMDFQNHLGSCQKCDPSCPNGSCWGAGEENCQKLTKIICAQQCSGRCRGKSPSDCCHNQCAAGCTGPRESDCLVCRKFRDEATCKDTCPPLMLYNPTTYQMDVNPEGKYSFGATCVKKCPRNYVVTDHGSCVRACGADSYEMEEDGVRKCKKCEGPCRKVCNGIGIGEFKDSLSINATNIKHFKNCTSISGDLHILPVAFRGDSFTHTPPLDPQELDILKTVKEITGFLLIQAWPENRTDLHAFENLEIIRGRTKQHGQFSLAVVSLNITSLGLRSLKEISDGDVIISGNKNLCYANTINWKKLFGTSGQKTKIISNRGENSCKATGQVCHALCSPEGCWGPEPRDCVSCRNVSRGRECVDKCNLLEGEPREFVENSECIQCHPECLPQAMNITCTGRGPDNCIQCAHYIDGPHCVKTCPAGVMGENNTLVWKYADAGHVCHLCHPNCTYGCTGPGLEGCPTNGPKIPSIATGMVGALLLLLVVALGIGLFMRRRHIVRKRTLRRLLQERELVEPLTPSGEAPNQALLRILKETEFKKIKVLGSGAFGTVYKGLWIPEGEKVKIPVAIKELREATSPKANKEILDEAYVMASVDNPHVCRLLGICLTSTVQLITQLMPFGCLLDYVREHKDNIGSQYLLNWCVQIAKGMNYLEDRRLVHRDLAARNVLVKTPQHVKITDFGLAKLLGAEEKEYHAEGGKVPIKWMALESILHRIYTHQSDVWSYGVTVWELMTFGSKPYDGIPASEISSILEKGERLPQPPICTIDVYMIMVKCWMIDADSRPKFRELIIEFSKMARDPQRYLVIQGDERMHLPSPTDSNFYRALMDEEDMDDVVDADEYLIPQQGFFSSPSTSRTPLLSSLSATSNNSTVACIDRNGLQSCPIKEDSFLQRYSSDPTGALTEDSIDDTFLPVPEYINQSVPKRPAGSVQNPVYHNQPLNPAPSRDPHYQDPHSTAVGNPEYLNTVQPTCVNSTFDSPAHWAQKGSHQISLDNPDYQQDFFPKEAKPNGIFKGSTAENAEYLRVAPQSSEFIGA

Tyrosine-protein kinase Lck, sequence (P06239 whole entry): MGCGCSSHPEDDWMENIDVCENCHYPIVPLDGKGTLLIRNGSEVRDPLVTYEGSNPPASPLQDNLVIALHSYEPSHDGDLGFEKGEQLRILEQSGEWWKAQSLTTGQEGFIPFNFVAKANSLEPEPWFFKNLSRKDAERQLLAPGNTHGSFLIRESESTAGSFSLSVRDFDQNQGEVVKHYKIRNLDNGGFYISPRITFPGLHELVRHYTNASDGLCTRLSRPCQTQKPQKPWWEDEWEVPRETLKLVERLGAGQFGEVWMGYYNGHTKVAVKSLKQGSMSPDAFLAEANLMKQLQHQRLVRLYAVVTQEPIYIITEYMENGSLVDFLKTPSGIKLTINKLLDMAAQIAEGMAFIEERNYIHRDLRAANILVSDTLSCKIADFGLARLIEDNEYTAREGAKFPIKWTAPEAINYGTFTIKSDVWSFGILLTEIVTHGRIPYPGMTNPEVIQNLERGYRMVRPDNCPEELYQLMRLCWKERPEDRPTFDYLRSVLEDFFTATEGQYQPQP

Structure (SMILES) | IC50 [1] | IC50 [2]
NC(=O)c1cc2cc(O)c(O)cc2cn1 | 1900 µM | > 100 µM
N#C/C(=C\c1ccc(O)c(O)c1)C(N)=O |  | 20 µM
O=C(NCc1ccccc1)c1cc2ccc(O)c(O)c2cn1 | 1 µM | 1.4 µM
O=C(NCCc1ccccc1)c1cc2ccc(O)c(O)c2cn1 | 40 µM | 1.4 µM

Second part, the compound after the results:

IC50 [1] | IC50 [2] | Structure (SMILES)
> 1000 µM | 3.1 µM | O=C(NCc1ccccc1)c1cc2cc(O)c(O)cc2cn1
0.5 µM | > 100 µM | NC(=O)c1cc2ccc(O)c(O)c2cn1
1 µM | 7.7 µM | O=C(Nc1ccccc1)c1cc2ccc(O)c(O)c2cn1
600 µM | 5.6 µM | O=C(Nc1ccccc1)c1cc2cc(O)c(O)cc2cn1
